{
  "source": "patent US10232023B2",
  "about": "“Methods for treatment of and prophylaxis against inflammatory disorders” (THE UNIVERSITY OF UTAH RESEARCH FOUNDATION, priority 2013, dated 2019)",
  "key": {"[1]": {"tested_on": "human PMNs (killing of a pathogenic strain of E. coli)", "experiment": "Bacterial killing of E. coli by human PMNs", "type": "cell-based", "conditions": "LPS-stimulated (100 ng/mL) PMNs; pretreatment 1 nM", "method": "Total, phagocytotic, and NET-mediated extracellular bacterial killing of a pathogenic strain of E. coli by human PMNs±LPS stimulation (100 ng/mL) was assessed, and the results are summarized in FIG. 9. PMNs were also pretreated with CRISPP (1 nM), or a scrambled control peptide control (1 nM). Phagocytotic killing was inhibited with cytochalasin B and D pretreatment (10 μM). NET-mediated killing was inhibited using DNase treatment to dismantle NETs prior to addition of the bacteria.\nBacterial killing efficiency of primary human PMNs was determined as previously described in Yost et al., Blood, 2009, 113: 6419-6427. PMNs were incubated for 30 minutes at 37° C. in 5% CO2/95% air alone or with the phagocytosis inhibitors cytochalasin B and D (10 μM). The leukocytes were then stimulated with LPS (100 ng/mL), placed in poly-L-lysine-coated wells of a 24-well tissue culture plate, and incubated at 37° C. for 1 hour to induce cellular activation and formation of NETs. To inhibit NET-mediated bacterial killing, we incubated selected wells with DNase (40 U/mL) for 15 minutes prior to addition of bacteria. E. coli (1 cfu/100 PMN) were added to the PMNs, followed by continued incubation for 2 hours. The PMNs were then permeabilized with 0.1% Triton-X 100 for 10 minutes and each well was scraped to free all cells. Serial dilutions were performed and bacterial cultures were grown on 5% sheep blood agar plates (HARDY DIAGNOSTICS). After a 24-hour incubation, bacterial counts were determined. Total, phagocytotic, and fractional NET-mediated bacterial killing were determined as described above."}, "[2]": {"tested_on": "PMA-stimulated adult PMNs", "experiment": "NET formation by PMA-stimulated adult human PMNs", "type": "cell-based", "conditions": "pre-incubation 1 nM, 1 hour; PMA 20 nM", "procedure": "NET formation by PMA-stimulated adult PMNs with or without CRISPP pre-incubation was assessed.\nHuman PMNs isolated from healthy adult donors were stimulated with LPS (100 ng/mL) or phorbal-12-mystirate (PMA; 20 nM), ±nNIF (1 nM) or CRISPP (1 nM), pre-incubation (1 hour). Scrambled control peptide (SCR) generated using the identical amino acid content as CRISPP but linked in a random order was used as a control. NET formation was assessed 2 hours after stimulation.\nBriefly, primary PMNs isolated from preterm infants, healthy term infants, and healthy adults (2×10^6 cells/mL) were incubated with control buffer or stimulated with LPS (100 ng/mL), PMA (20 nM), or S. aureus bacteria (MOI 100) for 1 hour at 37° C. in 5% CO2/95% air on glass coverslips coated with poly-L-lysine. For selected experiments, primary PMNs were pre-incubated with autologous plasma, cord blood plasma, nNIF (1 nM), CRISPP (1 nM), or SCR (1 nM) for 1 hour prior to imaging. After pre-incubation and/or stimulation, PMNs were gently washed with PBS and incubated with a mixture of cell permeable (SYTO Green, MOLECULAR PROBES) and impermeable (SYTOX Orange, MOLECULAR PROBES) DNA fluorescent dyes. Confocal microscopy was accomplished using a FV300 1×81 Microscope and FLUOVIEW software (OLYMPUS). Both 20× and 60× objectives were used. Z-series images were obtained at a step size 1 μm over a range of 20 μm for each field. OLYMPUS FLUOVIEW and ADOBE PHOTOSHOP CS2 software were used for image processing.\nSupernatant total histone H3 content was determined as previously referenced in McInturff et al., Blood, 2012, 120: 3118-3125. After live cell imaging of control and stimulated primary PMNs (2×10^6/mL; various agonists), the cells were incubated with PBS containing DNase (40 U/mL) for 15 minutes at room temperature to break down and release NETs formed in response to stimulation. The supernatant was gently removed and centrifuged at 420×g for 5 minutes. The cell-free supernatant was then mixed 1:3 with 4× Laemmli buffer prior to western blotting. A polyclonal primary antibody against human histone H3 protein (CELL SIGNALING TECHNOLOGY) and infrared secondary antibodies (LI-COR BIOSCIENCES) were used. Imaging and densitometry were performed on the ODYSSEY™ infrared imaging system (LI-COR BIOSCIENCES)."}, "[3]": {"tested_on": "PMA-stimulated PMNs", "experiment": "Nuclear decondensation (nuclear area) assay", "type": "cell-based, human", "conditions": "CRISPP 1 nM, SCR 1 nM, Sivelestat 200 nM; PMA 20 nM, 2 hours; vs PMA alone", "method": "Using techniques modified from Papayannopoulos et al., J Cell Biol, 2010, 191: 677-691, nuclear area assays were used for PMA-stimulated PMNs as a surrogate for NET formation. PMNs were stimulated with PMA (20 nM) for 2 hours and then visualized via live cell imaging with a cell permeable DNA dye. Images from 5 randomly selected high power fields were captured and the nuclear area of all PMNs on each visual field was quantitated using IMAGEJ software. Nuclear areas were compared for PMNs stimulated with PMA with PMNs pre-incubated with CRISPP (1 nM), SCR (1 nM), or the NE inhibitor Sivelestat (200 nM). […] Next, immunocytochemical experiments designed to see whether CRISPP is taken up by human PMNs were performed. The CRISPP-F and SCR-F peptides and FLAG-tag specific primary antibodies were used to assess cellular location. […] CRISPP can inhibit nuclear chromatin decondensation, which is consistent with the selective inhibition of NET formation by CRISPP and nNIF. This process may involve inhibition of NE activity.\nPMNs were isolated and resuspended to 2×10^6 cells/mL in M-199 media. […] 5 randomly selected high power visual fields per sample were captured via confocal microscopy and analyzed for nuclear area using the cell-permeable, fluorescent DNA dye SYTO Green. The nuclear pixel areas of >100 individual cells per high power field were determined using IMAGE-J software (NIH)."}, "[4]": {"tested_on": "outbred Swiss mice, murine CL/P model", "experiment": "Survival in cecal ligation and puncture (CL/P) model", "type": "in vivo, mouse", "conditions": "10 mcg/kg IP, 1 hour prior and 6 hours after surgery, vs CL/P control, p=0.06", "method": "FIG. 11 is a graph tracking survival of outbred Swiss mice in various treatment arms of a murine CL/P model. CRISPP treated mice (10 mcg/kg) received 2 doses intraperitoneally; one given 1 hour prior to surgery or sham surgery and one dose given 6 hours after surgery. The same dose, delivery route, and schedule were followed for the scrambled peptide control mice. Ten mice were assessed in each of the CL/P groups.\nSurvival of outbred Swiss mice was tracked in various treatment arms following intraperitoneal injection of either LPS (20 mg/kg) or E. coli (4×10^7 bacteria), as shown in FIGS. 10A and 10B. […] Six mice were assessed in both groups: LPS+CRISPP and LPS+scrambled control peptide. […] Ten mice were assessed in each group: no treatment, E. coli+CRISPP, and E. coli+scrambled control peptide. […] Referring to FIG. 11, CRISPP was also evaluated in a murine model of polymicrobial infection caused by cecal ligation and puncture (CL/P). […] Ten mice were assessed in each of the CL/P groups. […]\nAnimals were treated with CRISPP (10 mg/kg), nNIF (10 mg/kg), or SCR (10 mg/kg) by i.p. injection 1 hour prior to and 6 hours after infection (E. coli, 4.5×10^7 cfu/mouse, i.p. injection) or stimulation (LPS, 25 mg/kg, i.p. injection). […] Survival was assessed over 6 days at 6 hour to 12 hour intervals."}, "[5]": {"tested_on": "Mature ewe PMNs", "experiment": "NET formation by sheep PMNs", "type": "cell-based", "text": "Referring to FIGS. 13A and 13B, PMNs from preterm lamb cord blood and from mature ewes were isolated."}},
  "note": "Entries after “also recorded” stand apart in the source; their conditions may differ.",
  "data": [
    {"substance": "Cancer-Associated SCM-Recognition, Immune Defense Suppression, and Serine Protease Protection Peptide [CRISPP, nNIF-related peptide (nNRP)]", "values": [
      {"measurement": "NET-mediated extracellular bacterial killing of E. coli", "setting": "[1]", "result": "significantly decreased"},
      {"measurement": "Phagocytotic bacterial killing of E. coli", "setting": "[1]", "result": "did not alter; also recorded: not different"},
      {"measurement": "Total bacterial killing of E. coli", "setting": "[1]", "result": "significantly decreased"},
      {"measurement": "NET formation by PMA-stimulated PMNs", "setting": "[2]", "result": "significantly inhibited NET formation"},
      {"measurement": "Nuclear area of PMA-stimulated PMNs", "setting": "[3]", "result": "significant decrease in nuclear area"},
      {"measurement": "Survival", "setting": "[4]", "result": "approached statistical significance"},
      {"measurement": "NET formation by LPS-stimulated sheep PMNs", "setting": "[5]; mature ewe PMNs, pre-treatment 1 hour, LPS 100 ng/mL", "result": "inhibited NET formation in a dose-dependent manner"},
      {"measurement": "NET formation by PMA-stimulated sheep PMNs", "setting": "[5]; sheep PMNs, PMA", "result": "inhibited NET formation"}
    ]}
  ]
}
